# “Also recorded” adds a separate entry of the source.
# Tested on: patients with systolic hypertension
# Assay: 12-week randomized, open-label, multi-center, cross-over clinical study of aliskiren 300 mg on high versus low sodium diet (24-hour ABPM)
# Type: in vivo, human
# Details: aliskiren 300 mg once daily; 4 weeks high sodium (≧200 mmol/day) vs 4 weeks low sodium (≦100 mmol/day) diet; non-inferiority margin 4 mmHg
# Experimental: The effect of Aliskiren (300 mg) on reduction in mean 24-hour ambulatory blood pressure systolic hypertensive patients using low and high sodium diets is examined in a 12-week, randomized, open-label, multi-center, cross-over study. Subjects with systolic hypertension have a 2-4 week washout of their current antihypertensive medications. Patients who meet 8-hour ABPM criteria at week 0 (ABPM mean daytime systolic blood pressure ≧135 mmHg and <160 mmHg) are randomized to either a high sodium (≧200 mmol/day) or low sodium (≦100 mmol/day) diet and will be dispensed aliskiren 300 mg.
# After 2 and 4 weeks on the assigned sodium level diet, 24-hour urine (Bentley, Brook 2006) collections for sodium and creatinine are collected and measured to confirm adherence to the diet. After 4 weeks on the assigned sodium level diet, 24-hour ABPM is measured. Patients are then crossed over to the other level sodium diet. Those patients who had high sodium diet for the first four weeks start having low sodium diet for the next 4 weeks and vice versa. After 2 and 4 weeks on the new diet, 24-hour urine collections for sodium and creatinine are again collected and measured to confirm adherence to the diet. After 4 weeks on the newly assigned sodium level diet, 24-hour ABPM are measured. […]
structure (smiles),measurement,value
"COCCCOc1cc(C[C@@H](C[C@H](N)[C@@H](O)C[C@H](C(=O)NCC(C)(C)C(N)=O)C(C)C)C(C)C)ccc1OC [aliskiren, 2(S),4(S),5(S),7(S)—N-(3-amino-2,2-dimethyl-3-oxopropyl)-2,7-di(1-methylethyl)-4-hydroxy-5-amino-8-[4-methoxy-3-(3-methoxy-propoxy)phenyl]-octanamide]",antihypertensive effect (change in mean 24-hour ambulatory blood pressure) on high versus low sodium diet,the same (within the BP boundaries indicated) regardless of whether the subject ingests a high or a low sodium diet; also recorded: reduce blood pressure efficiently irrespective of the sodium intake
